Data taken from article PMC4876444, “Two-Photon Enzymatic Probes Visualizing Sub-cellular/Deep-brain Caspase Activities in Neurodegenerative Models” (Scientific Reports, 2016).

Tested on: HeLa cells
Assay: Permeability of free dye and probes in live cells (fluorescence imaging)
Type: cell-based, human
Conditions: HeLa cells, DMSO/STS 1 μM 4 h, then probe 24 μM 1 h at 4 °C or 37 °C, one-photon imaging
Procedure: Supplementary Figure 5. Detection of caspase activities in live mammalian cells. (a) One-photon images of AAN (5 μM)/probes (24 μM)/DMSO (blank) in live HeLa cells after 1-h incubation together with LysoTracker. (Panels 1-7) bright field; (Panels 8-14) λex = 405 nm, λem = 420-480 nm (indicative of probes, blue); (Panels 15-21) λex = 405 nm, λem = 470-500 nm (indicative of AAN, green); (Panels 22-28) LysoTracker (λex = 543 nm, λem = 560-615 nm, red); (Panels 29-35) merged images of blue/red channels. Scale bar: 20 μm. (b) Bioimaging of NIH/3T3 cells transfected with active caspase-1 (Panels 2/3/5/6; 50 ng)/caspase-3 (Panels 8/9; 15 ng)/caspase-8 (Panels 11/12; 5 ng) with/without inhibitor treatment (Panels 3/6/9/12, 50 μM of Z-VAD-FMK incubated for 1 h before probes were added) as well as control cells (Panels 1/4/7/10, no caspase transfection) by using C1RB (24 μM)/C1FS (12 μM) for caspase-1, C3RA (24 μM) for caspase-3 and C8RA (24 μM) for caspase-8. Cells were co-stained with membrane tracker. (Green) signals from caspase-cleaved probes (λex = 760 nm, λem = 480-550 nm for all probes, except for C1FS with λem = 450-550 nm). (Red) membrane tracker (λex = 650 nm, λem = 655-740 nm). (Inset) bright field. Scale bar = 10 μm. […]
XTT assay. The cytotoxicity of our probes was determined by using the XTT colorimetric cell proliferation kit (Roche) following manufacturer’s guidelines. […]

## CC(=O)N[C@@H](CC(=O)O)C(=O)N[C@@H](CCC(=O)O)C(=O)N[C@H](C(=O)N[C@@H](CC(=O)O)C(=O)Nc1ccc2cc(C(C)=O)ccc2c1)C(C)C [C3RA, Ac-DEVD-AAN]
  endocytosis and endo/lysosomal trapping of the probe: no obvious
